Assay [1] has as its target EGFR double mutation L858R/T790M (H1975 cells) (Homo sapiens (Human), UniProt P00533, L858R/T790M). The experiment in a line: Phospho-EGFR signaling immunoblot in H1975 cells. It counts as cell-based. Conditions: for EC50: H1975 cells, 1 hr treatment, phospho-EGFR (Y1068); for Ratio WT/mutant (H1975): signaling EC50 WT EGFR / H1975. As to the method: (§1) A431 human epidermoid carcinoma, H1975 human NSCLC and HCC827 human NSCLC adenocarcinoma cells were obtained from the American Type Culture Center (Manassas, Va.). A431 cells were grown in DMEM (Invitrogen, Carlsbad, Calif.) supplemented with 10% FBS (HyClone, South Logan, Utah) and 1% Penicillin-Streptomycin (P/S, Lonza, Walkersville, Md.).
(§2) All primary antibodies were obtained from Cell Signaling (Danvers, Mass.) and used at 1:1000. Secondary antibodies were used at 1:10,000. Goat anti-mouse IgG IRDye 800CW antibody was obtained from LiCor Biosciences (Lincoln, Nebr.) and goat anti-rabbit IgG Alexa Fluor 680 was obtained from Invitrogen.
(§3) Cells were grown in 12-well plates (Corning, Coring, N.Y.) to 90% confluence and then incubated in low-serum (0.1% FBS) media for 16-18 hr. […] A431 cells were then stimulated with 50 ng/ml EGF (Peprotech, Rocky Hill, N.J.) for 15 min. After treatment, cell monolayers were washed with cold PBS (Invitrogen) and immediately lysed by scrapping into 60 uL cold Cell Extraction Buffer (Invitrogen) supplemented with Complete Protease inhibitors (Roche, Indianapolis, Ind.) and PhosphoSTOP (Roche) phosphatase inhibitors.
(§4) Phospho-protein signals were quantitated using Odyssey Infrared Imaging (Li-Cor Biosciences).
(§5) To assess phosphor-EGFR signaling, blots were probed with rabbit anti-Phospho-EGFR (Y1068) and mouse total anti-EGFR antibodies. Phospho-EGFR signal was normalized to total EGFR expression for each sample. […] Normalized data was fitted using a sigmoidal curve analysis program (Graph Pad Prism version 5) with variable Hill slope to determine the EC50 values.
(§6) The compound numbers recited in Table 4 correspond to the compound numbers in Table 1.
A general note: A western blot detects proteins with antibodies after separation by electrophoresis.

The target in the next assay is WT EGFR (A431 cells) (Homo sapiens (Human), UniProt P00533). The experiment in a line: Phospho-EGFR signaling immunoblot in A431 cells (WT EGFR). It counts as cell-based. Conditions: 1 hr treatment, EGF stimulated, phospho-EGFR (Y1068). As to the method: as §1, §2, §3, §4, §5, §6
Assay [2] deals with HCC827 cells (EGFR delE746-A750). The experiment in a line: Cell proliferation (CellTiter Glo), HCC827 cells. The conditions noted are these: proliferation GI50 WT EGFR / HCC827.
For the next assay, the target named is EGFR (WT) (Homo sapiens (Human), UniProt P00533). In words: Omnia biochemical assay, EGFR-WT active enzyme. The conditions noted are these: [EGFR-WT]=5 nM, [ATP]=15 uM, 30 min pre-incubation. As for the experimental part: Kinase reactions were started with the addition of 45 μL of the ATP/Tyr-Sox peptide substrate mix and monitored every 71 seconds for 60 minutes at λex360/λem485 in a Synergy^4 plate reader from BioTek (Winooski, Vt.).
The compound numbers correspond to the compound numbers in Table 1.

For assay [3], the system named is H1975 cells (EGFR L858R/T790M). The experiment in a line: Cell proliferation (CellTiter Glo), H1975 cells. Conditions: proliferation GI50 WT EGFR / H1975. (In general: ATP-based viability assays read luminescence as a measure of living cells.)
Experimental: Cells were plated in Growth Media supplemented with 5% FBS and 1% P/S at a density of 3,000 cells per well in 96 well tissue culture plates (Corning). […] Growth inhibition (GI50) values were determined by Graph Pad Prism.
Assay [4] concerns the target EGFR delE746-A750 deletion mutation (HCC827 cells) (Homo sapiens (Human), UniProt P00533, DEL746-750). In words: Phospho-EGFR signaling immunoblot in HCC827 cells. It counts as cell-based. As to the method:
as §1, §2, §3, §4, §5, §6

What is called EC50 is the concentration giving half of the maximal effect. Read a low EC50 as an effect from little substance. Broadly, the IC50 is the midpoint of a concentration-inhibition curve. Regarding `C=CC(=O)Nc1cccc(Nc2nc(Nc3ccc(N4CCN(C(C)=O)CC4)cc3OC(F)(F)F)ncc2C(F)(F)F)c1` [Compound I-33, N-(3-(2-(4-(4-acetylpiperazin-1-yl)-2-(trifluoromethoxy)phenylamino)-5-(trifluoromethyl)pyrimidin-4-ylamino)phenyl)acrylamide], the EC50 in assay [1] was 10 to 100 nM; on WT EGFR (A431 cells) it was more than 1000 nM. Moreover, the “Ratio WT/mutant (H1975)” value in assay [1] is on record as more than 50; in assay [3] it was more than 30. Moreover, the “Ratio WT/mutant (HCC827)” value in assay [2] was more than 15. The IC50 on EGFR (WT) fell in the range of 1 to 10 nM.
As for `C=CC(=O)Nc1cccc(Nc2nc(Nc3ccc(N4CCCN(C(=O)OC(C)(C)C)CC4)cc3OC)ncc2C(F)(F)F)c1` [Compound I-44, tert-butyl 4-(4-(4-(3-acrylamidophenylamino)-5-(trifluoromethyl)pyrimidin-2-ylamino)-3-methoxyphenyl)-1,4-diazepane-1-carboxylate], the EC50 is 500 to 1000 nM in assay [1] and more than 1000 nM on WT EGFR (A431 cells). Moreover, the “Ratio WT/mutant (H1975)” value in assay [1] and in assay [3] was more than 5 in each case. The “Ratio WT/mutant (HCC827)” value in assay [2] is listed as more than 5. The IC50 on EGFR (WT) was 300 to 1000 nM.
`C=CC(=O)Nc1cccc(Nc2nc(Nc3ccc(N4CCN(S(C)(=O)=O)CC4)cc3OC)ncc2C(F)(F)F)c1` [Compound I-17, N-(3-(2-(2-methoxy-4-(4-(methylsulfonyl)piperazin-1-yl)phenylamino)-5-(trifluoromethyl)pyrimidin-4-ylamino)phenyl)acrylamide]: the EC50 in assay [1] is 10 to 100 nM; on WT EGFR (A431 cells), more than 1000 nM; in assay [4] (HCC827 cells, 1 hr treatment, phospho-EGFR (Y1068)), 100 to 500 nM. For the same compound, the “Ratio WT/mutant (H1975)” value is listed as more than 30 in assay [1] and more than 10 in assay [3]. Besides, the “Ratio WT/mutant (HCC827)” value in assay [4] (signaling EC50 WT EGFR / HCC827) is more than 5; in assay [2] it was more than 15. The IC50 on EGFR (WT) lay within 10 to 30 nM.
`C=CC(=O)Nc1cccc(Nc2nc(Nc3ccc(N4CCN(C(=O)CO)CC4)cc3OC)ncc2C(F)(F)F)c1` [Compound I-6, N-(3-(2-(4-(4-(2-hydroxyacetyl)piperazin-1-yl)-2-methoxyphenylamino)-5-(trifluoromethyl)pyrimidin-4-ylamino)phenyl)acrylamide]: the half-maximal effective concentration (EC50) was 10 to 100 nM in assay [1] and more than 1000 nM at WT EGFR (A431 cells). Also, the “Ratio WT/mutant (H1975)” value in assay [1] was more than 20; in assay [3] it was more than 10. In addition, the “Ratio WT/mutant (HCC827)” value in assay [2] was more than 40. For the same compound, the IC50 on EGFR (WT) was in the range of 1 to 10 nM.
Turning to `C=CC(=O)Nc1cccc(Nc2nc(Nc3ccc(N4CCN(C(C)=O)[C@H](C(=O)OC)C4)cc3OC)ncc2C(F)(F)F)c1` [Compound I-48, (S)-methyl 1-acetyl-4-(4-(4-(3-acrylamidophenylamino)-5-(trifluoromethyl)pyrimidin-2-ylamino)-3-methoxyphenyl)piperazine-2-carboxylate], the values for the EC50 (in assay [1]; at WT EGFR (A431 cells)) were 10 to 100 nM and more than 1000 nM, respectively. The “Ratio WT/mutant (H1975)” value in assay [1] is more than 50; in assay [3], more than 10. Further, the “Ratio WT/mutant (HCC827)” value in assay [2] is more than 15. Further, the IC50 on EGFR (WT) fell in the range of 10 to 30 nM.
For `C=CC(=O)Nc1cccc(Nc2nc(Nc3ccc(N4CCN(C(C)=O)CC4)cc3OC)ncc2Br)c1` [Compound I-40, N-(3-(2-(4-(4-acetylpiperazin-1-yl)-2-methoxyphenylamino)-5-bromopyrimidin-4-ylamino)phenyl)acrylamide], the EC50 (in assay [1]; at WT EGFR (A431 cells)) was more than 1000 nM throughout. Also, the “Ratio WT/mutant (H1975)” value in assay [1] is recorded as more than 1; in assay [3] it was more than 5. Further, the “Ratio WT/mutant (HCC827)” value in assay [2] is reported as more than 10. The IC50 on EGFR (WT) was in the range of 10 to 30 nM.
With `C=CC(=O)Nc1cccc(Nc2nc(Nc3ccc(N4CCCN(C(C)=O)CC4)cc3OC)ncc2C(F)(F)F)c1` [Compound I-7, N-(3-(2-(4-(4-acetyl-1,4-diazepan-1-yl)-2-methoxyphenylamino)-5-(trifluoromethyl)pyrimidin-4-ylamino)phenyl)acrylamide], the EC50 was 100 to 500 nM in assay [1] and more than 1000 nM on WT EGFR (A431 cells). The figures for the “Ratio WT/mutant (H1975)” value in assay [1] and in assay [3] were more than 5 and more than 1, respectively. Further, in assay [2], the “Ratio WT/mutant (HCC827)” value is more than 10. For the same compound, the IC50 at EGFR (WT) is 10 to 30 nM.
In the case of `C=CC(=O)Nc1cccc(Nc2nc(Nc3ccc(N4CCN(C(C)=O)CC4)cc3OC)ncc2Cl)c1` [Compound I-8, N-(3-(2-(4-(4-acetylpiperazin-1-yl)-2-methoxyphenylamino)-5-chloropyrimidin-4-ylamino)phenyl)acrylamide], the EC50 (in assay [1]; on WT EGFR (A431 cells)) was more than 1000 nM each time. Further, the “Ratio WT/mutant (H1975)” value in assay [1] and in assay [3] was more than 1 in each case. Further, the “Ratio WT/mutant (HCC827)” value in assay [2] was more than 20. Moreover, on EGFR (WT), the IC50 was 10 to 30 nM.
On to `C=CC(=O)Nc1cccc(Nc2nc(Nc3ccc(N4CCN(C(=O)C(C)(C)C)CC4)cc3OC)ncc2C(F)(F)F)c1` [Compound I-34, N-(3-(2-(2-methoxy-4-(4-pivaloylpiperazin-1-yl)phenylamino)-5-(trifluoromethyl)pyrimidin-4-ylamino)phenyl)acrylamide], for which the concentration giving a half-maximal response (EC50) is 100 to 500 nM in assay [1] and more than 1000 nM on WT EGFR (A431 cells). Also, the “Ratio WT/mutant (H1975)” value is reported as more than 35 in assay [1] and more than 5 in assay [3]. The “Ratio WT/mutant (HCC827)” value in assay [2] is recorded as more than 50. In addition, at EGFR (WT), the IC50 was in the range of 30 to 100 nM.
For `C=CC(=O)Nc1cccc(Oc2nc(Nc3ccc(N4CCN(C(=O)CO)CC4)cc3OC)ncc2Cl)c1` [Compound I-3, N-(3-(5-chloro-2-(4-(4-(2-hydroxyacetyl)piperazin-1-yl)-2-methoxyphenylamino)pyrimidin-4-yloxy)phenyl)acrylamide], the EC50 is 500 to 1000 nM in assay [1] and more than 1000 nM at WT EGFR (A431 cells). Further, the “Ratio WT/mutant (H1975)” value in assay [1] and in assay [3] was more than 5 in each case. Also, the “Ratio WT/mutant (HCC827)” value in assay [2] is recorded as more than 45. In addition, the IC50 on EGFR (WT) was 1 to 10 nM.
On to `C=CC(=O)Nc1cccc(Oc2nc(Nc3ccc(N4CCN(C(=O)CO)CC4)cc3OC)ncc2C(F)(F)F)c1` [Compound I-11, N-(3-(2-(4-(4-(2-hydroxyacetyl)piperazin-1-yl)-2-methoxyphenylamino)-5-(trifluoromethyl)pyrimidin-4-yloxy)phenyl)acrylamide], for which the EC50 in assay [1] was 100 to 500 nM; at WT EGFR (A431 cells) it was more than 1000 nM. Besides, the entries for the “Ratio WT/mutant (H1975)” value in assay [1] and in assay [3] were more than 15 and more than 5, respectively. Also, the “Ratio WT/mutant (HCC827)” value in assay [2] is more than 45. For the same compound, the IC50 at EGFR (WT) lay within 10 to 30 nM.
Turning to `C=CC(=O)Nc1cccc(Nc2nc(Nc3ccc(N4CCN(C(=O)CO)CC4)cc3OC)ncc2Cl)c1` [Compound I-12, N-(3-(5-chloro-2-(4-(4-(2-hydroxyacetyl)piperazin-1-yl)-2-methoxyphenylamino)pyrimidin-4-ylamino)phenyl)acrylamide], the EC50 (in assay [1]; at WT EGFR (A431 cells)) was more than 1000 nM in each case. The “Ratio WT/mutant (H1975)” value in assay [1] and in assay [3] was more than 1 in each case. For the same compound, the “Ratio WT/mutant (HCC827)” value in assay [2] is given as more than 30. Moreover, at EGFR (WT), the IC50 lay within 10 to 30 nM.

The record behind these values is patent US8975249B2, “Heterocyclic compounds and uses thereof” (Celgene Avilomics Research, Inc., priority 2010, dated 2015).
